Literature values in US7311392B2, “Inkjet recording ink and method of inkjet recording” (Fujifilm Corporation, priority 2002, dated 2007).

Settings: 20° C.; water-miscible organic solvent of the ink

SMILES	Vapor Pressure [Pa]
COCC(C)O (centres unmarked) [Compound 1-Methoxy-2-propanol, 1-Methoxy-2-propanol]	1013 (20° C.) Pa
CC(C)O [Compound 2-Propanol, 2-Propanol]	4320 (20° C.) Pa
OCCOCCO [Diethylene glycol]	<1.3 (20° C.) Pa
OCC(O)CO [Glycerin]	0.3 (20° C.) Pa
CCCCOCCOCCOCCO [Triethylene glycol monobutyl ether]	<1.3 (20° C.) Pa
